Reference: PMC10111423, “Antimalarial Imidazopyridines Incorporating an Intramolecular Hydrogen Bonding Motif: Medicinal Chemistry and Mechanistic Studies” (ACS Infectious Diseases, 2023)
pIC50: −log10 of the molar value. Converted amounts (≈) assume the structure as drawn.

Tests used:
[1] = system: multidrug-resistant (K1) strain of P. falciparum; assay: In vitro asexual blood-stage antiplasmodium pLDH assay, K1 strain; type: cell-based; settings: Plasmodium falciparum, 72 h, n ≥ 3, read-out: In vitro antiplasmodium activity IC50 PfK1 strain
Description: (§1) Compounds were screened against multi-drug-resistant (K1) and sensitive (NF54) strains of P. falciparum in vitro using a parasite lactate dehydrogenase assay (pLDH) (the method is described fully in the Supporting Information). […]
(§2) In vitro Asexual Blood Stage Antiplasmodium Assay
(§3) Parasites were cultured as per the method of Trager and Jensen,1 with modifications. IC50 values were determined using parasite lactate dehydrogenase as a marker for survival (Makler […]
(§4) et al, 1993). The test samples were prepared to a 10 mmol/L stock solution in 100% DMSO.
(§5) Samples were tested as a suspension if not completely dissolved. Further dilutions to the desired starting concentration were freshly prepared in growth media on each occasion of the experiment. The standard antimalarial drugs chloroquine (CQ) and artesunate (Arts) were used as the reference drug in all experiments. A full dose-response was performed for all compounds in a 96-well plate to determine the concentration inhibiting 50% of parasite growth (IC50– value). Test samples were tested at a starting concentration of 6mmol/L, which was then serially diluted 2-fold in growth medium to generate the tested concentration range. The same dilution technique was used for all samples. CQ and Arts were tested from a starting concentration of 1µg/mL. The highest concentration of solvent to which the parasites were exposed was <0.1% and has no measurable effect on the parasite viability (data not shown).
(§6) The assay plate was incubated at 37 °C for 72h in a sealed gas chamber under 3% O2 and 4% CO2 with the balance being N2. After 72h, the wells in the assay plate were gently resuspended, and 15µL from each well was transferred to a duplicate plate containing 100µL of Malstat reagent and 25µL of nitroblue tetrazolium solution in each well. Plates were left to develop for 20 minutes in the dark and then absorbance of each well was quantified using a spectrophotometer at 620nm wavelength.
(§7) The remaining population of parasites at each concentration of the test compound was determined by comparing the absorbance of each well to the absorbance of a well containing […]
(§8) the drug-free control. […]
(§9) The initial 100 µg/mL solution is serially diluted 10-

[2] = system: Chinese hamster ovarian (CHO) cell line; assay: In vitro cytotoxicity MTT assay; type: cell-based; settings: CHO vs PfNF54
Description: (§10) In vitro cytotoxicity was performed on the Chinese Hamster Ovarian cell line by measuring cellular growth and survival calorimetrically through the MTT assay.[29],[30] The formation of tetrazolium salt was used as a measure of chemosensitivity and growth. (Details of this assay is described in the Supporting Information.) page 19: et al, 1993). The test samples were prepared to a 10 mmol/L stock solution in 100% DMSO. Samples were tested as a suspension if not completely dissolved. Further dilutions to the desired starting concentration were freshly prepared in growth media on each occasion of the experiment. The standard antimalarial drugs chloroquine (CQ) and artesunate (Arts) were used as the reference drug in all experiments. A full dose-response was performed for all compounds […] value). Test samples were tested at a starting concentration of 6mmol/L, which was then serially diluted 2-fold in growth medium to generate the tested concentration range. The same dilution technique was used for all samples. CQ and Arts were tested from a starting concentration of 1μg/mL. The highest concentration of solvent to which the parasites were exposed was <0.1% and has no measurable effect on the parasite viability (data not shown). The assay plate was incubated at 37 °C for 72h in a sealed gas chamber under 3% O2 and 4% CO2 with the balance being N2. After 72h, the wells in the assay plate were gently resuspended, and 15μL from each well was transferred to a duplicate plate containing 100μL of Malstat reagent and 25μL of nitroblue tetrazolium solution in each well. Plates were left to develop for 20 minutes in the dark and then absorbance of each well was quantified using a spectrophotometer at 620nm wavelength. The remaining population of parasites at each concentration of the test compound was determined by comparing the absorbance of each well to the absorbance of a well containing the drug-free control. Survival was plotted against concentration and the IC50 values were obtained using a non-linear dose-response curve fitting analysis via the Dotmatics software platform.2 In vitro Cytotoxicity Assay In vitro cytotoxicity was performed on the Chinese Hamster Ovarian cell line by measuring […] diphenyltetrazolium bromide (MTT) assay.3,4 The formation of tetrazolium salt was used as a measure of chemosensitivity and growth. 2 mg/mL stock solutions of the test compounds were prepared in DMSO and stored at -20 °C until required. The stock solution was subsequently diluted with the assay medium to make up an initial concentration of 100 μg/mL. The initial 100 μg/mL solution is serially diluted 10- S19 page 20: fold to attain six assay concentrations of 100-0.001 μg/mL. […] was used as the reference compound in this assay. The highest concentration of DMSO, which was used as the negative control, had no measurable effect on cell viability. After 44 hours of exposure of the cells to the test compounds, a solution of MTT was added. This was followed by an additional 4 hours of incubation at 37 °C. The assay plates were centrifuged, medium removed, and DMSO was added to the crystals. The amount of formazan was ascertained by measuring the absorbance at 540 nm. GraphPad Prism software was then used to generate IC50 values through a non-linear dose-response curve analysis. β-Hematin Inhibition Assay 20 mM stock solutions of controls and test compounds were made in DMSO. A solution […] was added to every well in columns 1-11 of a 96-well plate. 140 μL of water and 40 μL of 305.5 μM NP-40 were added to column 12 to mediate the formation of beta-hematin. 20 μL of test compounds (20 mM) were added to column 12 and 100 μL of this solution serially diluted to column 2, leaving column 1 blank (0 μM of test compound). 178.8 μL aliquot of hematin stock was suspended in 20 ml of a 1 M acetate buffer at pH 4.9. 100 μL of this hematin suspension was then added into each well, and the plates were incubated for ±5 hrs at 37°C. […]

[3] = In vitro cytotoxicity MTT assay; type: cell-based, Chinese hamster; settings: Chinese hamster, Chinese hamster ovarian (CHO) cells; MTT assay
Description: as §10

[4] = system: β-hematin; assay: β-Hematin inhibition assay (BHIA), cell-free NP-40 mediated; type: biochemical; settings: mean of n = 3
Description: page 20: fold to attain six assay concentrations of 100-0.001 μg/mL. […] was used as the reference compound in this assay. The highest concentration of DMSO, which was used as the negative control, had no measurable effect on cell viability. After 44 hours of exposure of the cells to the test compounds, a solution of MTT was added. This was followed by an additional 4 hours of incubation at 37 °C. The assay plates were centrifuged, medium removed, and DMSO was added to the crystals. The amount of formazan was ascertained by measuring the absorbance at 540 nm. GraphPad Prism software was then used to generate IC50 values through a non-linear dose-response curve analysis. β-Hematin Inhibition Assay 20 mM stock solutions of controls and test compounds were made in DMSO. A solution […] was added to every well in columns 1-11 of a 96-well plate. 140 μL of water and 40 μL of 305.5 μM NP-40 were added to column 12 to mediate the formation of beta-hematin. 20 μL of test compounds (20 mM) were added to column 12 and 100 μL of this solution serially diluted to column 2, leaving column 1 blank (0 μM of test compound). 178.8 μL aliquot of hematin stock was suspended in 20 ml of a 1 M acetate buffer at pH 4.9. 100 μL of this hematin […] pH 7.4 and 50% pyridine) and 60 μL of acetone were added to all wells. The absorbances of plate wells were recorded at 405 nm on a SpectraMax plate reader. Sigmoidal dose-response curves with variable slopes were fitted to the absorbance data using GraphPad Prism to obtain the IC50 values for each compound. In vitro Microsomal Stability Assay The in vitro microsomal stability assay was performed in duplicate in a 96-well micro titre […] individually in human (pool of 50, mixed gender), rat (pool of 711, male Sprague Dawley) and mouse (pool of 1634, male CD1) liver microsomes (final protein concentration of 0.4 mg/mL; Xenotech, Kansas, USA), suspended in 0.1M phosphate buffer (pH 7.4). Incubations were S20

[5] = system: chloroquine-sensitive (NF54) strain of P. falciparum; assay: In vitro asexual blood-stage antiplasmodium pLDH assay, NF54 strain; type: cell-based; settings: Plasmodium falciparum, NF54; pLDH, 72 h, n ≥ 3; read-out: In vitro antiplasmodium activity IC50 PfNF54 strain
Description: as §1, §2, §3, §4, §5, §6, §7, §8, §9

[6] = Solubility; type: physicochemical; settings: pH 6.5, aqueous buffer
Text: Table 1 In Vitro Antiplasmodium Activity, Cytotoxicity, BHIA, and Solubility | column: Solubility pH 6.5, μM

| Compound | pIC50 [1] | pIC50 [4] | pIC50 [5] | solubility [6] [µM] | SI (selectivity index) = IC50 CHO/IC50 PfNF54 [2] | IC50 at 44 h [3] [µM] |
| --- | --- | --- | --- | --- | --- | --- |
| CCN(CCNc1cc2[nH]c([C@H]3CC[C@H](C(F)(F)F)CC3)nc2cn1)Cc1ccc(Cl)cc1O [Compound 16, 5-Chloro-2-((ethyl(2-((2-((1r,4r)-4-(trifluoromethyl)cyclohexyl)-1H-imidazo[4,5-c]pyridin-6-yl)amino)ethyl)amino)methyl)phenol] | 5.72 | 3.90 | 6.25 | 135 (≈ 67 µg/mL) | >89.29 | > 50 |
| CCN(CCNc1cc2[nH]c(C3CCOCC3)nc2cn1)Cc1ccc(Cl)cc1O [Compound 3, 5-Chloro-2-((ethyl(2-((2-(tetrahydro-2H-pyran-4-yl)-1H-imidazo[4,5-c]pyridin-6-yl)amino)ethyl)amino)methyl)phenol] | 5.38 | 3.14 | 5.63 | 120 (≈ 51.6 µg/mL) | >21.09 | > 50 |
| CCN(CCNc1cc2[nH]c(C3CCOC3)nc2cn1)Cc1ccc(Cl)cc1O (stereo not drawn) [Compound 2, 5-Chloro-2-((ethyl(2-((2-(tetrahydrofuran-3-yl)-1H-imidazo[4,5-c]pyridin-6-yl)amino)ethyl)amino)methyl)phenol] | 5.79 | 3.65 | 5.78 | 125 (≈ 52 µg/mL) | >29.94 | > 50 |
| CCN(CCNc1cc2[nH]c(C3CCCN3C)nc2cn1)Cc1ccc(Cl)cc1O (stereo not drawn) [Compound 13, 5-Chloro-2-((ethyl(2-((2-(1-methylpyrrolidin-2-yl)-1H-imidazo[4,5-c]pyridin-6-yl)amino)ethyl)amino)methyl)phenol] | 5.41 | 3.55 | 5.99 | 175 (≈ 75.1 µg/mL) | >48.54 | > 50 |

More lines, main results first:

| pIC50 [1] | pIC50 [4] | pIC50 [5] | solubility [6] [µM] | Compound | SI (selectivity index) = IC50 CHO/IC50 PfNF54 [2] | IC50 at 44 h [3] [µM] |
| --- | --- | --- | --- | --- | --- | --- |
| 5.22 | 3.56 | 5.78 | 175 (≈ 79.4 µg/mL) | CCN(CCNc1cc2[nH]c(C3(C(F)(F)F)CC3)nc2cn1)Cc1ccc(Cl)cc1O [Compound 7, 5-Chloro-2-((ethyl(2-((2-(1-(trifluoromethyl)cyclopropyl)-1H-imidazo[4,5-c]pyridin-6-yl)amino)ethyl)amino)methyl)phenol] | >29.94 | > 50 |
| 5.77 | 3.62 | 6.02 | 135 (≈ 67 µg/mL) | CCN(CCNc1cc2[nH]c([C@H]3CC[C@@H](C(F)(F)F)CC3)nc2cn1)Cc1ccc(Cl)cc1O [Compound 17, 5-Chloro-2-((ethyl(2-((2-((1r,4r)-4-(trifluoromethyl)cyclohexyl)-1H-imidazo[4,5-c]pyridin-6-yl)Amino)ethyl)amino)methyl)phenol] | 51.68 | 49.1 |
